Assays:
c-Src = c-Src (Homo sapiens (Human), UniProt P12931); experiment: c-Src enzyme inhibition (FRET, Z-LYTE); format: biochemical
Procedure, shortened: (§1)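 Enzyme (c-Src 3000 ng/mL, Syk 2000 ng/mL, as added solutions) was preincubated with compound for 2 hr at RT, then FRET peptide and ATP (added solution 800 μM for c-Src, 60 μM for Syk) for 1 hr. Protease development 1 hr; coumarin/fluorescein emission ratio gave % inhibition, IC50 from concentration-response.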

Syk = Syk (Homo sapiens (Human), UniProt P43405); experiment: Syk enzyme inhibition (FRET, Z-LYTE); format: biochemical
Procedure, shortened: as §1

GSK 3α = GSK 3α (Homo sapiens (Human), UniProt P49840); experiment: GSK 3α enzyme inhibition (FRET, Z-LYTE, Method 2); format: biochemical; conditions: read-out: IC50 Values for Enzyme Inhibition, GSK3α
GSK 3α, sequence (P49840 whole entry): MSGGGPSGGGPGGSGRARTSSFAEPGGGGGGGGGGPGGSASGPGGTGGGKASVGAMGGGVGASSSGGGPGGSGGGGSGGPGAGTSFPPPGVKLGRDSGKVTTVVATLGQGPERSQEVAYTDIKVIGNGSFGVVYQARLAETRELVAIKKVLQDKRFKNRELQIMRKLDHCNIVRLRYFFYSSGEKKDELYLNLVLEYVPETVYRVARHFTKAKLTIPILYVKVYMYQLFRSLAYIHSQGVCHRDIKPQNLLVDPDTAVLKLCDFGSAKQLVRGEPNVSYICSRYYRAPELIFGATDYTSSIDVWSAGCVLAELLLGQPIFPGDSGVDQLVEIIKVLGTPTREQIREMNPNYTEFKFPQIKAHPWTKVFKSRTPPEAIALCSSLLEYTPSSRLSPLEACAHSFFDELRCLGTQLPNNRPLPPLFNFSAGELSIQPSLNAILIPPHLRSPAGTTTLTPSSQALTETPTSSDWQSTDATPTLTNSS
Procedure, shortened: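 Human GSK3α (500 ng/mL) preincubated with compound (4, 0.4, 0.04 or 0.004 μg/mL) at RT for 2 h (Method 1) or 105 min (Method 2). Then FRET peptide (8 μM) and ATP (40 μM) added for 1 h, followed by protease development for 1 h. IC50 from the coumarin/fluorescein emission ratio relative to uninhibited control.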

PBMCs [1] = experiment: LPS-induced IL-8 release in PBMC cells (assay b); format: cell-based, human; conditions: Homo sapiens, PBMC; LPS-stimulated PBMCs; read-out: IC50 Values for Inhibition of Cytokine Release, PBMCs IL-8
Procedure, shortened: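 Human PBMCs from healthy donors, isolated by density gradient, were pretreated with compound for 2 h and then stimulated with 1 ng/mL LPS (E. coli 0111:B4) for 24 h at 37° C, 5% CO2. Supernatant IL-8 and TNFα were measured by sandwich ELISA, and IC50 was taken from the dose-response curve.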

PBMCs [2] = experiment: IL-2 release in CD3/CD28 stimulated PBMC cells (assay c); format: cell-based; conditions: Homo sapiens, read-out: IC50 Values for Inhibition of Cytokine Release, PBMCs IL-2
Experimental: (§2) PBMCs from healthy subjects are separated from whole blood using a density gradient (Lymphoprep, Axis-Shield Healthcare). Cells are added to a 96 well plate pre-coated with a mixture of CD3/CD28 monoclonal antibodies (0.3 μg/mL eBioscience and 3 μg/mL BD Pharmingen respectively). Compound at the desired concentration is then added to the wells and the plate left for 3 days under normal tissue culture conditions. Supernatants are harvested and IL-2 and IFN gamma release determined by Sandwich ELISA (Duo-set, R&D System). The IC50 is determined from the dose response curve.

PBMCs [3] = experiment: IFN gamma release in CD3/CD28 stimulated PBMC cells (assay c); format: cell-based; conditions: Homo sapiens, read-out: IC50 Values for Inhibition of Cytokine Release, PBMCs IFNγ
Experimental: as §2

PBMCs [4] = experiment: Cell mitosis assay in PBMCs (assay g); format: cell-based; conditions: Homo sapiens, PBMC, test compound 5 μg/mL
Experimental: Peripheral blood mononucleocytes (PBMCs) from healthy subjects are separated from whole blood (Quintiles, London, UK) using a density gradient (Histopaque®-1077, Sigma-Aldrich, Poole, UK). The PBMCs (3 million cells per sample) are subsequently treated with 2% PHA (phytohaemagglutinin, Sigma-Aldrich, Poole, UK) for 48 hr, followed by a 20 hr exposure to varying concentrations of test compounds. At 2 hr before collection, PBMCs are treated with demecolcine (0.1 μg/mL; Invitrogen, Paisley, UK) to arrest cells in metaphase. To observe mitotic cells, PBMCs are permeabilised and fixed by adding Intraprep (50 μL; Beckman Coulter, France), and stained with anti-phospho-histone 3 (0.26 ng/L; #9701; Cell Signalling, Danvers, Mass.) and propidium iodide (1 mg/mL; Sigma-Aldrich, Poole, UK) as previously described (Muehlbauer P. A. and Schuler M. J., Mutation Research, 2003, 537:117-130). Fluorescence is observed using an ATTUNE flow cytometer (Invitrogen, Paisley, UK), gating for lymphocytes. The percentage inhibition of mitosis is calculated for each treatment relative to vehicle (0.5% DMSO) treatment.

d-U937 cells = experiment: Accumulation of β catenin in d-U937 cells (assay m); format: cell-based, human; conditions: percentage relative to Reference Compound at 1 μg/mL
Procedure, shortened: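 PMA-differentiated (100 ng/mL, 48–72 hr) human U937 macrophage-type cells treated with test compound or vehicle for 18 hr. β-catenin measured by in-cell ELISA (anti-β-catenin, HRP secondary, TMB, OD450–655). Signal corrected for cell number by dividing by crystal violet OD595.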

[5] = target: p38 MAPKα isoform (MAPK14) (Homo sapiens (Human), UniProt Q16539); experiment: p38 MAPKα enzyme inhibition (FRET, Z-LYTE, Method 2); format: biochemical
p38 MAPKα isoform (MAPK14), sequence (Q16539 whole entry, canonical isoform): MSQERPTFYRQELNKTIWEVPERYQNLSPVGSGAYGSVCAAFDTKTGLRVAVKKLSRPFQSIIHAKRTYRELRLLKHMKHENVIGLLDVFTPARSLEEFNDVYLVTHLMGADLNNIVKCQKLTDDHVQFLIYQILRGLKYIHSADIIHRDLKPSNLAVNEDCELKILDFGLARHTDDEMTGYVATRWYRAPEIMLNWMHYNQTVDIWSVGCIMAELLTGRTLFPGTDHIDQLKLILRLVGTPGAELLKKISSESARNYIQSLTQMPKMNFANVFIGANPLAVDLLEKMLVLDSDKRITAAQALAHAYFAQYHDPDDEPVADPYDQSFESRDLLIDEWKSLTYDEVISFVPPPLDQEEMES
Procedure, shortened: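 Z-LYTE FRET: p38 MAPKα (80 ng/mL for Method 1, 200 ng/mL for Method 2, pre-dilution) preincubated 2 hr RT with compound (4–0.004 μg/mL solutions), activity read via MAPKAP-K2 phosphorylation after 1 hr RT and 1 hr protease development. Coumarin/fluorescein ratio gives phosphorylation; % inhibition versus uninhibited control, IC50 from concentration-response curve.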

c-Src, sequence (P12931 whole entry, looked up): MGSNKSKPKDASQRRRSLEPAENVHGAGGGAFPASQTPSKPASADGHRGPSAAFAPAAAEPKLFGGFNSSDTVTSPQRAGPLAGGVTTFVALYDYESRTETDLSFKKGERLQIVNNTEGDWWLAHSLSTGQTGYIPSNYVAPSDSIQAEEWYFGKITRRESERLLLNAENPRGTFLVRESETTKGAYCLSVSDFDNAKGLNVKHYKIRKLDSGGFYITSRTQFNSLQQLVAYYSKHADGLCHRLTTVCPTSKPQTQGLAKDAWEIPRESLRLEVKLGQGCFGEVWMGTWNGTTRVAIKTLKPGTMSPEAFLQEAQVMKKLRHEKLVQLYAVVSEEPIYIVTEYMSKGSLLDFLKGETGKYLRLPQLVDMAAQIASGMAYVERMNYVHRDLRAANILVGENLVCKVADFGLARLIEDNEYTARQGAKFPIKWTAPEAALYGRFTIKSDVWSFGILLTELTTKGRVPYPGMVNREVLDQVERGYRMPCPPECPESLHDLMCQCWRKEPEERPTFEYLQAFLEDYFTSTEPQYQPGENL

Structure (SMILES) | IC50 (c-Src) [nM] | IC50 (Syk) [nM] | IC50 (GSK 3α) [nM] | IC50 (PBMCs [1]) [nM] | IC50 (PBMCs [2]) [nM] | IC50 (PBMCs [3]) [nM] | inhibition at 5 µg/mL (PBMCs [4]) [%] | % β-catenin induction (d-U937 cells; test compound 1 μg/mL) [%] | % β-catenin induction (d-U937 cells; test compound 5 μg/mL) [%] | % β-catenin induction (d-U937 cells; test compound 10 μg/mL) [%] | IC50 [5] [nM]
COc1c(NC(=O)Nc2ccc(Oc3ccnc(Nc4cnccn4)c3)c3ccccc23)cc(C(C)(C)C)cc1P(C)(C)=O [15(aa), 1-(5-(tert-butyl)-3-(dimethylphosphoryl)-2-methoxyphenyl)-3-(4-((2-(pyrazin-2-ylamino)pyridin-4-yl)oxy)naphthalen-1-yl)urea] | 46 | 114 | 192 | 0.8 | 58.6 | 14.7 | 98.1 | 50.5 | 58.5 | 49.5 | 
COCCOCCOCCNC(=O)c1cc(Nc2cc(Oc3ccc(NC(=O)Nc4cc(C(C)(C)C)cc(S(C)(=O)=O)c4OC)c4ccccc34)ccn2)cc(OC)c1 [38(ab), 3-((4-((4-(3-(5-(tert-Butyl)-2-methoxy-3-(methylsulfonyl)phenyl)ureido)naphthalen-1-yl)oxy)pyridin-2-yl)amino)-5-methoxy-N-(2-(2-(2-methoxyethoxy)ethoxy)ethyl)benzamide] | 61 | > 1200 | 4830 | 1.4 | 317 | 10.9 | 30.7 |  |  |  | 50
COc1cccc(Nc2cc(Oc3ccc(NC(=O)Nc4cc(C(C)(C)C)cc(CC(N)=O)c4OC)c(Cl)c3Cl)ccn2)c1 [38(af), 2-(5-(tert-Butyl)-3-(3-(2,3-dichloro-4-((2-((3-methoxyphenyl)amino)pyridin-4-yl)oxy)phenyl)ureido)-2-methoxyphenyl)acetamide] | 44 | 249 | 1010 | 2.6 | 63.3 | 4.5 | 89.3 |  |  |  | 
COc1cc(Nc2cc(Oc3ccc(NC(=O)Nc4cc(C(C)(C)C)cc(CC(N)=O)c4OC)c4ccccc34)ccn2)cc(S(N)(=O)=O)c1 [38(ai), 2-(5-(tert-Butyl)-2-methoxy-3-(3-(4-((2-((3-methoxy-5-sulfamoylphenyl)amino)pyridin-4-yl)oxy)naphthalen-1-yl)ureido)phenyl)acetamide] |  |  | 885 | 1.6 | 91.7 | 11.1 | 67.6 |  |  |  | 
COc1cc(Nc2cc(Oc3ccc(NC(=O)Nc4cc(C(C)(C)C)cc(P(C)(C)=O)c4OC)c4ccccc34)ccn2)ccc1C(=O)NCCN1CCOCC1 [38(ao), 4-((4-((4-(3-(5-(tert-Butyl)-3-(dimethylphosphoryl)-2-methoxyphenyl)ureido)naphthalen-1-yl)oxy)pyridin-2-yl)amino)-2-methoxy-N-(2-morpholinoethyl)benzamide] |  |  | 3270 | 2.7 | 219 | 15.7 | 78 |  |  |  | 
COc1c(NC(=O)Nc2ccc(Oc3ccnc(NCc4ccccc4)n3)c3ccccc23)cc(C(C)(C)C)cc1P(C)(C)=O [38(g), 1-(4-((2-(Benzylamino)pyrimidin-4-yl)oxy)naphthalen-1-yl)-3-(5-(tert-butyl)-3-(dimethylphosphoryl)-2-methoxyphenyl)urea] |  |  | 2370 | 3.3 | 1600 | 22.5 | 28.8 | 4.5 | 24.5 | 38.0 | 9
COc1cc(Nc2cc(Oc3ccc(NC(=O)Nc4cc(C(C)(C)C)cc(CNC(C)=O)c4OC)c4ccccc34)ccn2)cc(C(=O)NCCN2CCOCC2)c1 [38(t), 3-((4-((4-(3-(3-(Acetamidomethyl)-5-(tert-butyl)-2-methoxyphenyl)ureido)naphthalen-1-yl)oxy)pyridin-2-yl)amino)-5-methoxy-N-(2-morpholinoethyl)benzamide] |  |  | 839 | 0.7 | 288 | 7.4 | 77.3 |  |  |  | 
COc1c(NC(=O)Nc2ccc(Oc3ccnc(Nc4cc(C#N)cc(OCCCN5CCOCC5)c4)c3)c3ccccc23)cc(C(C)(C)C)cc1[S+](C)[O-] (stereo not shown) [79(e), 1-(5-tert-Butyl-2-methoxy-3-methylsulfinyl-phenyl)-3-[4-[[2-[3-cyano-5-(3-morpholinopropoxy)anilino]-4-pyridyl]oxy]-1-naphthyl]urea] | 81 | > 1190 |  | 4.1 | 51.9 | 6.9 | 72.4 |  |  |  | 269
COc1cc(Nc2nccc(Oc3ccc(NC(=O)Nc4cc(C(C)(C)C)cc(P(C)(C)=O)c4OC)c4ccccc34)n2)cc(OC)c1 [Example 18, 1-(5-(tert-Butyl)-3-(dimethylphosphoryl)-2-methoxyphenyl)-3-(4-((2-((3,5-dimethoxyphenyl)-amino)pyrimidin-4-yl)oxy)naphthalen-1-yl)urea] | 15 | 69 | 1310 | 2.1 | 19.4 | 8.2 |  | 6.5 | 35.5 | 39.0 | 218
COc1c(CNC(C)=O)cc(C(C)(C)C)cc1NC(=O)Nc1ccc(Oc2ccnc(Nc3cc(C#N)cc(OCCN4CCOCC4)c3)c2)c2ccccc12 [Example 50, N-(5-(tert-Butyl)-3-(3-(4-((2-((3-cyano-5-(2-morpholinoethoxy)phenyl)amino)pyridin-4-yl)oxy)naphthalen-1-yl)ureido)-2-methoxybenzyl)acetamide] | 40 | 799 | 3270 | 1.2 | 30.1 | 0.9 | 57.7 |  |  |  | 
COc1cc(Nc2cc(Oc3ccc(NC(=O)Nc4cc(C(C)(C)C)cc(C(=O)NCCN5CCOCC5)c4OC)c4ccccc34)ccn2)cc(C(N)=O)c1 [Example 61, 5-(tert-Butyl)-3-(3-(4-((2-((3-carbamoyl-5-methoxyphenyl)amino)pyridin-4-yl)oxy)naphthalen-1-yl)ureido)-2-methoxy-N-(2-morpholinoethyl)benzamide] |  |  | 1610 | 1.9 | 7.8 | 1.6 | 68.7 |  |  |  | 211
COc1cc(Nc2cc(Oc3ccc(NC(=O)Nc4cc(C(C)(C)C)cc(CC(N)=O)c4OC)c4ccccc34)ccn2)ccc1C(=O)NCCN1CCOCC1 [Example 70, 4-((4-((4-(3-(3-(2-Amino-2-oxoethyl)-5-(tert-butyl)-2-methoxyphenyl)ureido)naphthalen-1-yl)oxy)pyridin-2-yl)amino)-2-methoxy-N-(2-morpholinoethyl)benzamide] |  |  | 2280 | 2.3 | 98.1 | 11.1 | 62.8 |  |  |  | 28

From patent publication US9890185B2, “Urea derivatives useful as kinase inhibitors” (Respivert Limited, priority 2013, dated 2018)
